Test systems include DMS 273 small cell lung; DMS 114 small cell lung; LXFL 529 NSCLC; KM20L2 colon; M19-MEL melanoma; DLD-1 colon; XF 498 CNS; P388/ADR leukemia; P388 leukemia; SN12K1 renal; HOP-18 NSCLC.
What all share (experiment): NCI tumour cell line growth inhibition, 48 h

The structures appear in SMILES notation. Several values for one entry are separate records, joined by “and”; a condition that tells them apart may be missing. Identical values can stand only once.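 Cells were grown in 96-well plates and exposed to each compound for 48 hours at five concentrations; endpoints were interpolated linearly between bracketing concentrations, or set to the highest concentration if not reached. GI50 = concentration required for 50% inhibition of growth. At the TGI there is no net growth.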 A value given as a limit tells only on which side of the number the result lay.

For `O=C(CCN1CCCCC1CO)Nc1ccc2c(c1)C(=O)c1ccc(NC(=O)CCN3CCCCC3CO)cc1C2=O` (stereo unspecified), the TGI came to 19.2 µM in the test on DMS 273 small cell lung; 30.9 µM with DMS 114 small cell lung; 9.71 µM with LXFL 529 NSCLC; 76.4 µM in the test on KM20L2 colon; 29.3 µM with M19-MEL melanoma.
As to `CC(=O)Nc1ccc(C(=O)N2N=C(C)/C(=C/c3cccc(O)c3)C2=O)cc1`, the TGI in the test with DLD-1 colon, in the test with DMS 273 small cell lung, in the test with DMS 114 small cell lung, in the test on XF 498 CNS and in the test with M19-MEL melanoma was over 100 µM throughout.
As for `Cc1c(-c2coc(-c3ccc(Cl)cc3)n2)c(=O)n(-c2ccccc2)n1C`, the TGI in the test with DLD-1 colon, in the test on DMS 273 small cell lung, in the test on XF 498 CNS, with LXFL 529 NSCLC, with KM20L2 colon and with M19-MEL melanoma was over 100 µM in each case.
As for `CCN(CC)c1ccc(C(=C2C=CC(=[N+](CC)CC)C=C2)c2ccccc2)cc1`, the TGI in the test with DLD-1 colon came out at 0.193 µM; in the test with DMS 273 small cell lung it was 0.134 µM; with DMS 114 small cell lung it was 0.208 µM; in the test with XF 498 CNS, 0.0391 µM; in the test on LXFL 529 NSCLC it was 0.115 µM; in the test with KM20L2 colon, 0.117 µM. Moreover, the TGI in the test with M19-MEL melanoma was 0.158 µM.
Turning to `COc1ccc(CC2C(=O)NC(C)C(=O)N(C)C3Cc4ccc(cc4)Oc4cc(ccc4O)CC(C(=O)NC(C)C(=O)NC(C)C(=O)N2C)N(C)C3=O)cc1` (stereo unspecified), the TGI with P388/ADR leukemia came out at 20.6 µM; with DLD-1 colon, 1.09 µM; in the test with DMS 273 small cell lung it was 0.0532 µM; with XF 498 CNS, 0.0224 µM; with P388 leukemia, 0.0177 µM; in the test on KM20L2 colon, 0.49 µM. The compound also had a TGI in the test on M19-MEL melanoma of 0.0192 µM.
`CSc1nc2c(ncn2C2OCC(O)C(O)C2O)c(=O)[nH]1` (stereo unspecified): the TGI with P388/ADR leukemia, with DLD-1 colon, with DMS 273 small cell lung, in the test with DMS 114 small cell lung, with SN12K1 renal and in the test on XF 498 CNS was over 100 µM throughout. For the same compound, the TGI in the test on HOP-18 NSCLC, in the test with P388 leukemia, in the test with KM20L2 colon and with M19-MEL melanoma was over 100 µM each time.
Take `CC(=O)c1c(O)c(C)c(O)c2c1OC1=CC(=O)C(C(C)=O)C(=O)C12C` (stereo unspecified): the GI50 was 5.92 µM and 20.1 µM in the test on P388/ADR leukemia; 4.9 µM and 16.1 µM in the test on DLD-1 colon; 3.74 µM and 7.53 µM with DMS 273 small cell lung; 6.22 µM and 18.5 µM in the test with DMS 114 small cell lung; 4.99 µM and 14.1 µM with SN12K1 renal; 3.28 µM and 14.6 µM in the test with HOP-18 NSCLC. The GI50 was 3.74 µM and 23.8 µM in the test with P388 leukemia; 4.99 µM and 27 µM in the test on KM20L2 colon; 5.4 µM and 24.9 µM in the test with M19-MEL melanoma. Moreover, the TGI in the test on P388/ADR leukemia was 44.1 µM and 61.5 µM; in the test with DLD-1 colon, 29.9 µM and 69 µM; in the test on DMS 273 small cell lung, 11.9 µM and 22.5 µM; with DMS 114 small cell lung, 29.9 µM and 58.3 µM; in the test on SN12K1 renal, 19.4 µM and 39.3 µM; with XF 498 CNS, 0.807 µM and 0.835 µM. Moreover, the TGI in the test on HOP-18 NSCLC is 10.6 µM and 67.2 µM; with P388 leukemia, 26.3 µM and 60.3 µM; with KM20L2 colon it was 16.9 µM and 65.3 µM; in the test on M19-MEL melanoma, 44.4 µM and 79.3 µM.
Regarding `C=C1C(=O)C[C@@]23CCC[C@@]12CC(O)C3` (stereo partly specified), the TGI in the test with P388/ADR leukemia worked out at 32.4 µM; with DLD-1 colon, 54.8 µM; in the test with DMS 273 small cell lung it was 45.8 µM; in the test with DMS 114 small cell lung, 38.3 µM; in the test on SN12K1 renal it was 39.6 µM; with XF 498 CNS it was 41.1 µM. Also, the TGI in the test on HOP-18 NSCLC is 37.4 µM; with P388 leukemia, 25.3 µM; in the test with KM20L2 colon, 47.9 µM; with M19-MEL melanoma, over 70.2 µM.
With `NC(CO)c1ccccc1` (stereo unspecified), the TGI in the test on DLD-1 colon was over 100 µM; in the test with DMS 273 small cell lung, over 100 µM; in the test with DMS 114 small cell lung, over 100 µM; in the test on XF 498 CNS it was over 100 µM; in the test on HOP-18 NSCLC it was 96.1 µM; with LXFL 529 NSCLC, over 100 µM. In the test with KM20L2 colon, this compound displayed a TGI of over 100 µM.
With `COc1cc2cc3c4c(cc(OC)c(OC)c4c2cc1OC)CCN3C(=O)OCCBr`, the TGI in the test on DLD-1 colon, in the test on DMS 273 small cell lung, in the test on XF 498 CNS, with KM20L2 colon and in the test on M19-MEL melanoma was over 100 µM throughout.

These data come from PubChem BioAssay (NCI).
